Measured values published in patent US20260042771A1, “HETEROCYCLIC COMPOUND FOR INDUCING DEGRADATION OF G12V MUTANT KRAS PROTEIN” (Astellas Pharma Inc., priority 2022, published 2026).

What was measured:
[1] = tested on: human KRAS G12V mutant-positive pancreatic cancer line PA-TU-8902; assay: Test Example 3: non-anchorage-dependent cell growth inhibition, spheroid 3D culture; type: cell-based; conditions: PaTu 8902, 144 h, PA-TU-8902 spheroid 3D culture, 6 days, CellTiter Glo 2.0
Experimental: Test Example 3: Evaluation of Non-Anchorage-Dependent Cell Growth Inhibitory Effect on Human KRAS G12V Mutant-Positive Pancreatic Cancer Line PA-TU-8902
The non-anchorage-dependent cell growth inhibitory effect of test compounds was evaluated by spheroid 3D cell culture.
PA-TU-8902 cells were seeded on low-cell-adhesive round bottom 384-well plates (PrimeSurface: from Sumitomo Bakelite) at 36 µL/well to give 5×10^2 cells per well. The cell culture was performed under the same conditions as in Test Example 1.
The next day, the test compounds (8 to 10 points having final concentrations in the range of 3 μM to 0.1 nM) and DMSO, which was the solvent for the test compounds, as a negative control were diluted 100-fold with a fresh medium and were added at 4 μL per well. After culturing in the presence of 5% CO2 at 37° C. for 6 days, CellTiter Glo 2.0 (from Promega) was added at 20 μL per well. After stirring with a plate mixer (from FINEPCR) at normal temperature for 1 hour, the luminescent signals were measured with ARVO X3 (from PerkinElmer).
With the signaling value in treatment with DMSO taken as 0% inhibition and with the signaling value in the medium alone without cells taken as 100% inhibition, the 50% inhibitory concentration values (IC50) were calculated by Sigmoid-Emax nonlinear regression analysis. The inhibition rate at 30 nM was calculated for Example No. 17.

RAS G12V = target: T1, RAS G12V (Homo sapiens, UniProt P01116, G12V); assay: Test Example 1: RAS G12V degradation activity by Cell ELISA in PA-TU-8902; type: cell-based; conditions: for DC50: 50% degradation concentration of RAS G12V, PA-TU-8902 cells, 24 hours, Cell ELISA, corrected with β-actin; for Dmax: PaTu 8902, degradation rate at the most active concentration, DMSO = 0%, Example No. 7 at 3 μM = 100%, PA-TU-8902, 24 hours
T1 construct: host or cells: PA-TU-8902 human pancreatic cancer cells
T1 sequence (P01116 1-188 isoform P01116-2 G12V): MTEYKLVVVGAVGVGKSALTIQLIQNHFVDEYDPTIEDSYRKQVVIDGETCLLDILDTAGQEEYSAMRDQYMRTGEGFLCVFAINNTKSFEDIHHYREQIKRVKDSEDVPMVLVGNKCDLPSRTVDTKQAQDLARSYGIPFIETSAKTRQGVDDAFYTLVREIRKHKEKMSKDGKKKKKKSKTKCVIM
Experimental: Test Example 1: Evaluation of RAS G12V Degradation Activity on Human KRAS G12V Mutant-Positive Pancreatic Cancer Line PA-TU-8902
The RAS G12V degradation activity of test compounds was evaluated by measuring the expression levels of RAS G12V by Cell ELISA.
PA-TU-8902 cells (DSMZ, ACC 179) were seeded at 36 μL per well on 384-well plates (from Greiner bio-one) to give 1.5×10^4 cells per well. As for the cell culture conditions, DMEM medium (from Sigma-Aldrich) containing 10% fetal bovine serum (from Cytiva) was used in the presence of 5% CO2 at 37° C.
The next day, the test compounds (10 points having final concentrations in the range of 3 μM to 0.1 nM), the compound of Example No. 7 having a final concentration of 3 μM as a positive control and dimethyl sulfoxide (DMSO), which was the solvent for the test compounds, as a negative control were diluted 100-fold with a fresh medium and were added at 4 μL per well. The cells were cultured for 24 hours.
The next day, the culture supernatant was removed, and 4% paraformaldehyde phosphate buffer (from FUJIFILM Wako Pure Chemical Corporation) was added at 20 μL per well. The plates were allowed to stand for 30 minutes at room temperature to thus immobilize the cells. Then, the supernatant was removed, and 0.1% Triton X-100 (from Amersham Biosciences)-containing Phosphate buffered saline (PBS) was added at 20 μL per well. After allowing to stand at room temperature for 10 minutes, the supernatant was removed. PBS was added at 25 μL per well, and the supernatant was removed to thus wash each well. The washing was performed twice in total. Subsequent washing operations were performed in the same manner. Next, the supernatant was removed, and 0.5% sodium dodecyl sulfate (SDS; from ThermoFisher Scientific)-containing PBS was added at 20 μL per well. After allowing to stand at room temperature for 10 minutes, the supernatant was removed by centrifugation of the plates. After washing with PBS, the supernatant was removed by centrifugation, and blocking solution (PVDF Blocking Reagent for Can Get Signal [from TOYOBO Co., Ltd.]) was added at 20 μL per well. After allowing to stand for 30 minutes at room temperature, the supernatant was removed by centrifugation and a solution obtained by diluting, as primary antibodies, anti-Ras (G12V Mutant Specific) antibody (Ras (G12V Mutant Specific) (D2H12) Rabbit mAb; from Cell Signaling Technology; 500-fold diluted) and […] (Anti-beta Actin antibody; from Abcam; 5,000-fold diluted) with Can Get Signal Solution 2 (from TOYOBO Co., Ltd.) was added at 15 μL per well. The plates were allowed to stand overnight at 4° C.
The next day, the supernatant was removed by centrifugation and washed with PBS. The supernatant was removed by centrifugation, a solution obtained by diluting, as secondary antibodies, anti-rabbit IgG antibody (IRDye 800CW Goat anti-Rabbit IgG; from LI-COR Biosciences) and anti-mouse IgG antibody (IRDye 680RD Donkey anti-Mouse IgG; from LI-COR Biosciences) 1,000-fold with Can Get Signal Solution 2 was added at 15 μL per well. After allowing to stand at room temperature for 1 hour, the supernatant was removed by centrifugation and washed with PBS. After removing the supernatant, the plates were dried with air at room temperature for 2 hours or more, and the 700 nm and 800 nm fluorescent signals were measured with Aerius (from LI-COR Biosciences).
The degradation rate of RAS G12V was calculated with the RAS G12V signaling value at the time of addition of DMSO taken as 0%, which was corrected with the signaling value of β-actin, and with the RAS G12V signaling value at the time of addition of the compound of Example No. 7 at a final concentration of 3 μM taken as 100%. […]

`Cc1c(F)cc2[nH]ncc2c1-c1c(C2CC2)cc2c(N3CC[C@H]3C(N)=O)nc(OC[C@@H]3CCN(C)C3)nc2c1OCc1ccc(C(=O)N2CCN(Cc3ccc4c(N5CCC(=O)NC5=O)nn(C)c4c3)C[C@@H]2C)cc1` (atropisomer, axis not shown) [Example 7] gave an IC50 [1] of 0.055 µM, a DC50 (RAS G12V) of 0.038 µM and a Dmax (RAS G12V) of 103%.

For `Cc1c(F)cc2[nH]ncc2c1-c1c(C2CC2)cc2c(N3CC(C#N)C3)nc(OCC(C)(C)CN(C)C)nc2c1OCc1ccc(C(=O)N2CCN(Cc3ccc4c(c3)n(C)c(=O)n4N3CCC(=O)NC3=O)C[C@@H]2C)cc1` (atropisomer, axis not shown) [Example 10], the IC50 [1] was 0.022 µM, the DC50 (RAS G12V) was 0.006 µM and the Dmax (RAS G12V) was 88%.

In the case of `CO[C@@H](C)COc1nc(OC2CN(C(=O)NCCN(C)C)C2)c2cc(C3CC3)c(-c3c(C)c(F)cc4[nH]ncc34)c(OCc3ccc(C(=O)N4CCN(Cc5ccc6c(c5)n(C)c(=O)n6C5CCC(=O)NC5=O)C[C@@H]4C)cc3)c2n1` (stereo partly drawn) [Example 1], the IC50 [1] is reported as 0.042 µM, the DC50 (RAS G12V) is reported as 0.006 µM and the Dmax (RAS G12V) is reported as 77%.

With `Cc1c(F)cc2[nH]ncc2c1-c1c(C2CC2)cc2c(N3CC(C#N)C3)nc(OCC(C)(C)CN(C)C)nc2c1OCc1ccc(C(=O)N2CCN(Cc3ccc4c(N5CCC(=O)NC5=O)nn(C)c4c3)C[C@@H]2C)cc1` (atropisomer, axis not shown) [Example 11] the IC50 [1] was 0.018 µM, the DC50 (RAS G12V) was 0.011 µM and the Dmax (RAS G12V) was 88%.

`CO[C@@H](C)COc1nc(N2CC(C#N)C2)c2cc(C3CC3)c(-c3c(C)c(F)cc4[nH]ncc34)c(OCc3ccc(C(=O)N4CCC5(CN(Cc6ccc7c(N8CCC(=O)NC8=O)nn(C)c7c6)C5)C4)cc3)c2n1` (atropisomer, axis not shown) [Example 13] gave an IC50 [1] of 0.055 µM, a DC50 (RAS G12V) of 0.027 µM and a Dmax (RAS G12V) of 104%.

With `CO[C@@H](C)COc1nc(N2CC[C@H]2C(N)=O)c2cc(C3CC3)c(-c3c(C)c(F)cc4[nH]ncc34)c(OCc3ccc(C(=O)N4CCN(Cc5ccc6c(N7CCC(=O)NC7=O)nn(C)c6c5)C[C@@H]4C)cc3)c2n1` (atropisomer, axis not shown) [Example 5, (2S)-1-((7 M)-6-cyclopropyl-8-((4-[(2S)-4-{[3-(2,4-dioxo-1,3-diazinan-1-yl)-1-methyl-1H-indazol-6-yl]methyl)-2-methylpiperazine-1-carbonyl]phenyl)methoxy)-7-(6-fluoro-5-methyl-1H-indazol-4-yl)-2-[(2S)-2-methoxypropoxy]quinazolin-4-yl}azetidine-2-carboxyamide] the IC50 [1] was 0.015 µM, the DC50 (RAS G12V) was 0.005 µM and the Dmax (RAS G12V) was 97%.
